These results are taken from EP3431468B1, “USE OF ADIPONECTIN RECEPTOR AGONISTS IN TREATING DEPRESSION, ANXIETY AND NEUROINFLAMMATION” (CENTRE NATIONAL DE LA RECHERCHE SCIENTIFIQUE, priority 2017, dated 2019).

For one assay, the system named is hippocampal neurogenesis. Description: Hippocampal neurogenesis (BrdU-positive cells in dentate gyrus). Format: in vivo, mice. To be noted: chronic AdipoRon.
The test system of assay [1] is corticosterone-treated mice. Description: Social interaction test, chronic administration. Format: in vivo. To be noted: chronic 1mg/kg ip daily. As to the method:
Three well-established mouse models of depression-like behavior have been used in the present study namely i- the long-term corticosterone treatment in the drinking water (David, Samuels et al. 2009), ii- the peripheral administration of LPS (O'Connor, Lawson et al. 2009) iii- the ApN^-/- mice (Liu, Guo et al. 2012). For chronic AdipoRon treatment, the experimental protocol was as followed: • i- Five weeks old male mice (five/cage) received corticosterone (35mg/L dissolved in tap water containing 4 g/L CD) or vehicle alone ad libitum for during 7 consecutive weeks (David, Samuels et al. 2009). Corticosterone and vehicle solutions were changed every 3 days to prevent possible degradation. […]
All behavioral testing were conducted during the light phase (between 09:00 and 14:00 am) in compliance with the Institutional Animal Care and Use Committee of the University of Nice-Sophia Antipolis (permission number 010344.01 from the French "Ministère de l'Enseignement Supérieur et de la Recherche" granted to Dr. Joëlle Chabry). • Forced Swimming test (FST) - Mice were placed an inescapable transparent tank (20cm diameter, 30cm deep) filled with water (23°C ± 0.5) for six minutes as previously described by Porsolt et al. (1977). […] To initiate testing, mice were placed into the light side and activity was recorded for 5 minutes. […]

For `O=C(COc1ccc(C(=O)c2ccccc2)cc1)NC1CCN(Cc2ccccc2)CC1` [AdipoRon, 2-(4-Benzoylphenoxy)-N-[1-(phenylmethyl)-4-piperidinyl]-acetamide], the “hippocampal neurogenesis rate (BrdU-positive nuclei in dentate gyrus)” value with hippocampal neurogenesis (control conditions (no corticosterone)) is recorded as “without modifying neurogenesis”; with hippocampal neurogenesis (long-term corticosterone-treated mice, 21-days post-BrdU injections), “reversed the deleterious effect of corticosterone”. The figures for the social interactions entry in assay [1] (corticosterone-treated mice) and in assay [1] (vehicle-treated mice (no corticosterone)) were “reversed the effect of corticosterone” and “no significant effect”, respectively.
